Experimental data: patent publication US20210308089A1, “METHODS OF TREATING AND/OR PREVENTING VIRAL INFECTIONS AND/OR DISEASES CAUSED BY VIRUSES IN A SUBJECT IN NEED THEREOF” (priority 2020, published 2021)

Key:
[1] = test system: hs-CRP, D-dimer, ESR, blood counts, NLR, systemic immune-inflammation index; assay: VASCEPA-COVID-19: inflammatory biomarkers, baseline to day 14 follow-up, IPE vs usual care; type: in vivo, human
Procedure: This was a 14-day long, prospective, multi-site, two-armed, randomized, open-label study of approximately 100 individuals in Canada with a COVID-19-positive diagnosis or who have recently undergone testing for SARS-CoV-2. […] Blood samples are collected to determine if IPE use lowers circulating pro-inflammatory biomarkers.
Eligible patients were randomly allocated to the IPE group or the usual care group. Randomization was performed using envelope randomization via stratification using random permuted blocks. Patients allocated to the IPE group received a loading dose of 4 g IPE twice daily for 3 days followed by 2 g twice daily for 11 days. The usual care group received no intervention. Participant characteristics were obtained at baseline, while blood samples and clinical outcomes were obtained/measured at baseline and at follow-up.
The primary biomarker endpoint was the change in high-sensitivity C-reactive protein (hs-CRP) levels from baseline (day 1) to follow-up (day 14+3) within-groups. D-dimer, erythrocyte sedimentation rate (ESR), complete blood count, differential count, serum albumin levels, the neutrophil-to-lymphocyte ratio (NLR), and the systemic immune-inflammation index (defined by platelet count multiplied by NLR) from baseline to follow-up were secondary biomarker endpoints. The clinical endpoint was the change in InFLUenza Patient-Reported Outcome (FLU-PRO©) diary scores (total and domain breakdown). The FLU-PRO© score is designed to evaluate the presence, severity, and duration of influenza symptoms in clinical trials and standardize symptom assessment with respect to viral infections. The diary provides a comprehensive evaluation of symptomology over 32 distinct questions. Respondents answer on an ordinal scale from 0-4 across six domains: Body/Systemic, Chest/Respiratory, Eyes, Gastrointestinal, Nose, and Throat. The validity and reliability of the FLU-PRO© diary has been investigated. The ability to successfully adapt the measure for COVID-19 experimentation has also been explained (www.evidera.com/flu-pro/). […] Additional clinical endpoints included measuring FLU-PRO© symptom prevalence and investigating correlations between improvements in FLU-PRO© and decreases in hs-CRP levels.
Baseline characteristics, biomarkers, and clinical endpoints were described as frequencies and percentages (for categorical data) or medians with interquartile ranges (for continuous variables). Cohort comparisons were performed with the Wilcoxon Signed Rank (within-group), Mann-Whitney U (between group, continuous variables) or Fisher's Exact (between group, categorical variables) statistical tests. Within- and between-group p-values describing clinical (FLU-PRO©) score changes were conducted using a Wald test on least squares-mean estimated treatment difference, from an analysis of variance (ANOVA) model. Within- and between-group comparisons for the primary biomarker endpoint included median change from baseline. hs-CRP analyses were conducted with unadjusted and adjusted data (for sex, age [men <45 versus ≥45 years and women <55 versus ≥55 years], and baseline cardiovascular risk [absence or presence of cardiovascular comorbidities]). The model adjustments for baseline covariates were warranted based on current literature. Remaining unadjusted secondary biomarker data were evaluated via two-tailed within-group Wilcoxon Signed Rank Tests and between-group Mann-Whitney Tests. The prevalence and change from baseline total and individual domain FLU-PRO© scores were calculated as measures of alterations in symptom severity. Correlations between FLU-PRO© score improvement and hs-CRP reduction were calculated using the Spearman correlation coefficient. A p-value of less than 0.05 was considered significant without multiplicity adjustment, and all analyses were conducted using a modified intention-to-treat model.

[2] = test system: symptomatic COVID-19 outpatients with positive SARS-CoV-2 test; assay: VASCEPA-COVID-19: FLU-PRO symptom prevalence and scores (and correlation with hs-CRP); type: in vivo, human
[3] = 14 + 3 Days, n = 44, within-group P 0.07
[4] = 14 + 3 Days, n = 44, within-group P <0.01

CC/C=C\C/C=C\C/C=C\C/C=C\C/C=C\CCCC(=O)OCC [icosapent ethyl, eicosapentaenoic acid ethyl ester]
hs-CRP median, 14 + 3 Days ([1]; 14 + 3 Days, n = 44, IQR 0.6, 4.4): 1.6 mg/L
SII (systemic immune-inflammation index, median), 14 + 3 Days ([1]; 14 + 3 Days, n = 44, product of NLR*platelets, within-group P <0.01): 4.319e+11 L⁻¹
WBC Differential, Lymphocytes (median), 14 + 3 Days ([1]; 14 + 3 Days, n = 44, within-group P 0.01): 2.4e+09 L⁻¹
MCV (median), 14 + 3 Days ([1]; 14 + 3 Days, n = 44, within-group P 0.03): 87.5 fL
NLR (neutrophil-lymphocyte ratio, median), 14 + 3 Days [1, 3]: 1.6
WBC Differential, Basophils (median), 14 + 3 Days [1, 3]: 0 L⁻¹
WBC Differential, Eosinophils (median), 14 + 3 Days [1, 3]: 1e+08 L⁻¹
WBC Differential, Monocytes (median), 14 + 3 Days ([1]; 14 + 3 Days, n = 44, within-group P 0.08): 6e+08 L⁻¹
RDW (median), 14 + 3 Days ([1]; 14 + 3 Days, n = 44, within-group P 0.14): 12.5 % CV
eGFR (median), 14 + 3 Days ([1]; 14 + 3 Days, n = 44, within-group P 0.17): 87.0 mL/min/1.73 m^2
Lipid Assessment, Triglycerides (median), 14 + 3 Days ([1]; 14 + 3 Days, n = 44, within-group P 0.19): 1.5 mmol/L
ESR (median), 14 + 3 Days ([1]; 14 + 3 Days, n = 44, within-group P 0.20): 15.5 mm/hr
Creatinine (median), 14 + 3 Days ([1]; 14 + 3 Days, n = 44, within-group P 0.21): 73.5 µmol/L
MCHC (median), 14 + 3 Days ([1]; 14 + 3 Days, n = 44, within-group P 0.22): 339.5 g/L
MCH (median), 14 + 3 Days ([1]; 14 + 3 Days, n = 44, within-group P 0.40): 29.4 pg
Albumin (median), 14 + 3 Days ([1]; 14 + 3 Days, n = 44, within-group P 0.88): 43.0 g/L
HbA1C (median), 14 + 3 Days [1, 4]: 5.1%
Hematocrit (median), 14 + 3 Days [1, 4]: 0.4 L/L
Hemoglobin (median), 14 + 3 Days [1, 4]: 130.5 g/L
Lipid Assessment, HDL-C (median), 14 + 3 Days [1, 4]: 1.2 mmol/L
Lipid Assessment, LDL-C (median), 14 + 3 Days [1, 4]: 2.5 mmol/L
Lipid Assessment, Non-HDL-C (median), 14 + 3 Days [1, 4]: 3.3 mmol/L
Lipid Assessment, Total Cholesterol (median), 14 + 3 Days [1, 4]: 4.7 mmol/L
Platelet (median), 14 + 3 Days [1, 4]: 2.615e+11 L⁻¹
RBC Count (median), 14 + 3 Days [1, 4]: 4.7e+12 L⁻¹
WBC Count (median), 14 + 3 Days [1, 4]: 7.3e+09 L⁻¹
WBC Differential, Neutrophils (median), 14 + 3 Days [1, 4]: 3.9e+09 L⁻¹
Albumin (median), Baseline ([1]; Baseline, n = 44): 44.0 g/L
Creatinine (median), Baseline ([1]; Baseline, n = 44): 74.0 µmol/L
D-dimer (median), Baseline ([1]; Baseline, n = 44): 324.0 µg/L
ESR (median), Baseline ([1]; Baseline, n = 44): 18.0 mm/hr
Erythrocyte Sedimentation Rate (median), Baseline ([1]; Baseline, n = 44): 18.0 mm/hour
HbA1C (median), Baseline ([1]; Baseline, n = 44): 5.2%
Hematocrit (median), Baseline ([1]; Baseline, n = 44): 0.4 L/L
Hemoglobin (median), Baseline ([1]; Baseline, n = 44): 139.5 g/L
Lipid Assessment, HDL-C (median), Baseline ([1]; Baseline, n = 44): 1.1 mmol/L
Lipid Assessment, LDL-C (median), Baseline ([1]; Baseline, n = 44): 2.2 mmol/L
Lipid Assessment, Non-HDL-C (median), Baseline ([1]; Baseline, n = 44): 3.2 mmol/L
Lipid Assessment, Total Cholesterol (median), Baseline ([1]; Baseline, n = 44): 4.3 mmol/L
Lipid Assessment, Triglycerides (median), Baseline ([1]; Baseline, n = 44): 1.4 mmol/L
MCH (median), Baseline ([1]; Baseline, n = 44): 30.0 pg
MCHC (median), Baseline ([1]; Baseline, n = 44): 338.0 g/L
MCV (median), Baseline ([1]; Baseline, n = 44): 86.5 fL
NLR (neutrophil-lymphocyte ratio, median), Baseline ([1]; Baseline, n = 44): 1.7
Platelet (median), Baseline ([1]; Baseline, n = 44): 2.27e+11 L⁻¹
RBC Count (median), Baseline ([1]; Baseline, n = 44): 4.9e+12 L⁻¹
RDW (median), Baseline ([1]; Baseline, n = 44): 12.3 % CV
WBC Count (median), Baseline ([1]; Baseline, n = 44): 6.1e+09 L⁻¹
WBC Differential, Basophils (median), Baseline ([1]; Baseline, n = 44): 0 L⁻¹
WBC Differential, Eosinophils (median), Baseline ([1]; Baseline, n = 44): 1e+08 L⁻¹
WBC Differential, Lymphocytes (median), Baseline ([1]; Baseline, n = 44): 1.9e+09 L⁻¹
WBC Differential, Monocytes (median), Baseline ([1]; Baseline, n = 44): 5e+08 L⁻¹
WBC Differential, Neutrophils (median), Baseline ([1]; Baseline, n = 44): 3e+09 L⁻¹
eGFR (median), Baseline ([1]; Baseline, n = 44): 86.0 mL/min/1.73 m^2
hs-CRP median, Baseline ([1]; Baseline, n = 44, IQR 0.9, 11.6): 3.2 mg/L
SII (systemic immune-inflammation index, median), Baseline ([1]; Baseline, n = 44, product of NLR*platelets): 3.398e+11 L⁻¹
D-dimer (median), Day 14 + 3 ([1]; Day 14 + 3, n = 44, within-group P 0.048): 286.5 µg/L
Erythrocyte Sedimentation Rate (median), Day 14 + 3 ([1]; Day 14 + 3, n = 44, within-group P 0.20): 15.5 mm/hour
Median hs-CRP change at follow-up ([1]; baseline (day 1) to day 14+3, 8 g/day for 3 days, then 4 g/day for 11 days): -0.5 mg/L
hs-CRP Median Change from Baseline ([1]; baseline to day 14 + 3, n = 44, IQR −6.9, 0.4, within-group P 0.011, between-group P 0.082 unadjusted, 0.043 adjusted): -0.5 mg/L
hs-CRP Median Percent Change from Baseline ([1]; baseline to day 14 + 3, n = 44, IQR −80.1, 26.7): −25.0%
hs-CRP reduction from baseline levels ([1]; baseline to day 14+3, within IPE group): 25%
Total FLU-PRO symptom prevalence reduced by ([2]; 14+3-day follow-up): 52%
Reduction in chest/respiratory symptoms (FLU-PRO prevalence) ([2]; baseline to follow-up): 69%
Change in mean FLU-PRO score, total domain ([2]; baseline to follow-up, patients with non-zero treatment compliance): −0.16
